Patent US6953789B2, “Thiol compounds, their production and use” (Takeda Chemical Industries, Ltd., priority 1998, dated 2005)

Molecular target: T1, recombinant human MMP-13 (Homo sapiens, UniProt P45452)
T1 construct: made in house; host or cells: baculovirus (pBlueBac4 / Bac-N-Blue; virus made in Sf9), expressed in High-Five insect cells; culture supernatant used
Test: Assay of MMP-13 inhibiting activity (fluorogenic peptide substrate)
Format: biochemical
Conditions: Table 5; 37° C., 2 hours
Summary of the method: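 Baculovirus-expressed human MMP-13 (High-Five cell supernatant) in pH 7.5 Tris buffer with 200 mM NaCl, 20 mM CaCl2, 0.1% Brij 35, 1 mM 2-mercaptoethanol; reaction started with 40 μM (stock) MOCAc-PLGL-A2pr(DNP)-AR-NH2, 2 h at 37 °C, stopped at pH 3.0. Fluorescence 330/405 nm; IC50 versus no-compound control.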

SMILES	IC50
CC(=O)S[C@H]1CC(=O)N(Cc2ccc(Oc3ccccc3)cc2)[C@H]1C [Example 175, (4S,5S)-4-Acetylthio-5-methyl-1-(4-phenoxybenzyl)pyrrolidin-2-one]	100 nM
C[C@H]1[C@@H](S)CC(=O)N1Cc1ccc(Oc2ccccc2)cc1 [Example 176, (4S,5S)-4-Mercapto-5-methyl-1-(4-phenoxybenzyl)pyrrolidin-2-one]	50 nM
CC(=O)S[C@@H]1CC(=O)N(Cc2ccc(Oc3ccccc3)cc2)[C@H]1C [Example 177, (4R,5S)-4-Acetylthio-5-methyl-1-(4-phenoxybenzyl)pyrrolidin-2-one]	2 nM
C[C@H]1[C@H](S)CC(=O)N1Cc1ccc(Oc2ccccc2)cc1 [Example 178, (4R,5S)-4-Mercapto-5-methyl-1-(4-phenoxybenzyl)pyrrolidin-2-one]	5 nM
CC(=O)SC1CC(=O)N(Cc2ccc(Oc3ccccc3)cc2)C1C(N)=O (stereo not drawn) [Example 187, trans-5-Aminocarbonyl-4-acetylthio-1-(4-phenoxybenzyl)pyrrolidin-2-one]	360 nM
NC(=O)C1C(S)CC(=O)N1Cc1ccc(Oc2ccccc2)cc1 (stereo not drawn) [Example 188, trans-5-Aminocarbonyl-4-mercapto-1-(4-phenoxybenzyl)pyrrolidin-2-one]	13 nM

Same assay, conditions: Table 9; 37° C., 2 hours

SMILES	IC50
CCOC(=O)c1ccc(Oc2ccc(CN3CC(S)CC3=O)cc2)cc1 (stereo not drawn) [Example 132, 4-Mercapto-1-[4-(4′-ethoxycarbonylphenoxy)benzyl]pyrrolidin-2-one]	3.3 nM
CC(=O)SC1CC(=O)N(Cc2ccc(Oc3ccc(C(=O)O)cc3)cc2)C1 (stereo not drawn) [Example 133, 4-Acetylthio-1-[4-(4′-carboxyphenoxy)benzyl]pyrrolidin-2-one]	> 10000 nM
CC(=O)SC1CC(=O)N(Cc2ccc(Oc3ccc(C(N)=O)cc3)cc2)C1 (stereo not drawn) [Example 134, 4-Acetylthio-1-[4-(4′-aminocarbonylphenoxy)benzyl]pyrrolidin-2-one]	29 nM
NC(=O)c1ccc(Oc2ccc(CN3CC(S)CC3=O)cc2)cc1 (stereo not drawn) [Example 135, 4-Mercapto-1-[4-(4′-aminocarbonylphenoxy)benzyl]pyrrolidin-2-one]	9.2 nM
CC(=O)SC1CC(=O)N(Cc2ccc(Oc3ccc(O)cc3)cc2)C1 (stereo not drawn) [Example 136, 4-Acetylthio-1-[4-(4′-hydroxyphenoxy)benzyl]pyrrolidin-2-one]	9 nM
O=C1CC(S)CN1Cc1ccc(Oc2ccc(O)cc2)cc1 (stereo not drawn) [Example 137, 4-Mercapto-1-[4-(4′-hydroxyphenoxy)benzyl]pyrrolidin-2-one]	3 nM
CCOc1ccc(Oc2ccc(CN3CC(SC(C)=O)CC3=O)cc2)cc1 (stereo not drawn) [Example 138, 4-Acetylthio-1-[4-(4′-ethoxyphenoxy)benzyl]pyrrolidin-2-one]	20 nM
CCOc1ccc(Oc2ccc(CN3CC(S)CC3=O)cc2)cc1 (stereo not drawn) [Example 139, 4-Mercapto-1-[4-(4′-ethoxyphenoxy)benzyl]pyrrolidin-2-one]	6 nM
CC(=O)SC1CC(=O)N(Cc2ccc(Oc3ccc(OC(F)(F)F)cc3)cc2)C1 (stereo not drawn) [Example 140, 4-Acetylthio-1-{4-[4′-(trifluoromethoxy)phenoxy]benzyl}pyrrolidin-2-one]	20 nM
O=C1CC(S)CN1Cc1ccc(Oc2ccc(OC(F)(F)F)cc2)cc1 (stereo not drawn) [Example 141, 4-Mercapto-1-{4-[4′-(trifluoromethoxy)phenoxy]benzyl}pyrrolidin-2-one]	10 nM
CC(=O)SC1CC(=O)N(Cc2ccc(Oc3ccc([N+](=O)[O-])cc3)cc2)C1 (stereo not drawn) [Example 142, 4-Acetylthio-1-[4-(4′-nitrophenoxy)benzyl]pyrrolidin-2-one]	53 nM
O=C1CC(S)CN1Cc1ccc(Oc2ccc([N+](=O)[O-])cc2)cc1 (stereo not drawn) [Example 143, 4-Mercapto-1-[4-(4′-nitrophenoxy)benzyl]pyrrolidin-2-one]	11 nM
CC(=O)Nc1ccc(Oc2ccc(CN3CC(SC(C)=O)CC3=O)cc2)cc1 (stereo not drawn) [Example 144, 4-Acetylthio-1-[4-(4′-acetoaminophenoxy)benzyl]pyrrolidin-2-one]	2.7 nM
CC(=O)Nc1ccc(Oc2ccc(CN3CC(S)CC3=O)cc2)cc1 (stereo not drawn) [Example 145, 4-Mercapto-1-[4-(4′-acetoaminophenoxy)benzyl]pyrrolidin-2-one]	1.3 nM
CC(=O)SC1CC(=O)N(Cc2ccc(Oc3ccc(NS(C)(=O)=O)cc3)cc2)C1 (stereo not drawn) [Example 146, 4-Acetylthio-1-[4-(4′-methylsulfonylaminophenoxy)benzyl]pyrrolidin-2-one]	25 nM
CS(=O)(=O)Nc1ccc(Oc2ccc(CN3CC(S)CC3=O)cc2)cc1 (stereo not drawn) [Example 147, 4-Mercapto-1-[4-(4′-methylsulfonylaminophenoxy)benzyl]pyrrolidin-2-one]	1.2 nM
CCNC(=O)Nc1ccc(Oc2ccc(CN3CC(SC(C)=O)CC3=O)cc2)cc1 (stereo not drawn) [Example 148, 4-Acetylthio-1-[4-(4′-ethylaminocarbonylaminophenoxy)benzyl]pyrrolidin-2-one]	25 nM
CCNC(=O)Nc1ccc(Oc2ccc(CN3CC(S)CC3=O)cc2)cc1 (stereo not drawn) [Example 149, 4-Mercapto-1-[4-(4′-ethylaminocarbonylaminophenoxy)benzyl]pyrrolidin-2-one]	3.5 nM
CC(=O)SC1CC(=O)N(Cc2ccc(Oc3ccccc3)cc2[N+](=O)[O-])C1 (stereo not drawn) [Example 150, 4-Acetylthio-1-(2-nitro-4-phenoxybenzyl)pyrrolidin-2-one]	5500 nM
CC(=O)SC1CC(=O)N(Cc2ccc(Oc3ccccc3)c([N+](=O)[O-])c2)C1 (stereo not drawn) [Example 151, 4-Acetylthio-1-(3-nitro-4-phenoxybenzyl)pyrrolidin-2-one]	> 10000 nM
CC(=O)SC1CC(=O)N(Cc2ccc(Oc3ccccc3)c(NS(C)(=O)=O)c2)C1 (stereo not drawn) [Example 152, 4-Acetylthio-1-(3-methylsulfonylamino-4-phenoxybenzyl)pyrrolidin-2-one]	> 10000 nM
CS(=O)(=O)Nc1cc(CN2CC(S)CC2=O)ccc1Oc1ccccc1 (stereo not drawn) [Example 153, 4-Mercapto-1-(3-methylsulfonylamino-4-phenoxybenzyl)pyrrolidin-2-one]	4000 nM

Same assay, conditions: Table 10; 37° C., 2 hours

SMILES	IC50
CC(=O)SC1CC(=O)N(Cc2ccc(Sc3ccccc3)cc2)C1 (stereo not drawn) [Example 154, 4-Acetylthio-1-(4-phenylthiobenzyl)pyrrolidin-2-one]	20 nM
O=C1CC(S)CN1Cc1ccc(Sc2ccccc2)cc1 (stereo not drawn) [Example 155, 4-Mercapto-1-(4-phenylthiobenzyl)pyrrolidin-2-one]	7 nM
CC(=O)SC1CC(=O)N(Cc2ccc(Cc3ccccc3)cc2)C1 (stereo not drawn) [Example 159, 4-Acetylthio-1-(4-benzylbenzyl)pyrrolidin-2-one]	500 nM
O=C1CC(S)CN1Cc1ccc(Cc2ccccc2)cc1 (stereo not drawn) [Example 160, 4-Mercapto-1-(4-benzylbenzyl)pyrrolidin-2-one]	90 nM
CC(=O)SC1CC(=O)N(Cc2ccc(C(=O)c3ccccc3)cc2)C1 (stereo not drawn) [Example 161, 4-Acetylthio-1-(4-benzoylbenzyl)pyrrolidin-2-one]	200 nM
O=C(c1ccccc1)c1ccc(CN2CC(S)CC2=O)cc1 (stereo not drawn) [Example 162, 4-Mercapto-1-(4-benzoylbenzyl)pyrrolidin-2-one]	20 nM
CC(=O)SC1CC(=O)N(Cc2ccc(COc3ccccc3)cc2)C1 (stereo not drawn) [Example 163, 4-Acetylthio-1-(4-phenoxymethylbenzyl)pyrrolidin-2-one]	500 nM
O=C1CC(S)CN1Cc1ccc(COc2ccccc2)cc1 (stereo not drawn) [Example 164, 4-Mercapto-1-(4-phenoxymethylbenzyl)pyrrolidin-2-one]	80 nM
CC(=O)SC1CC(=O)N(Cc2ccc(OCc3ccccc3)cc2)C1 (stereo not drawn) [Example 165, 4-Acetylthio-1-(4-benzyloxybenzyl)pyrrolidin-2-one]	1000 nM
O=C1CC(S)CN1Cc1ccc(OCc2ccccc2)cc1 (stereo not drawn) [Example 166, 4-Mercapto-1-(4-benzyloxybenzyl)pyrrolidin-2-one]	100 nM
CC(=O)SC1CC(=O)N(Cc2ccc(CCc3ccccc3)cc2)C1 (stereo not drawn) [Example 167, 4-Acetylthio-1-(4-phenethylbenzyl)pyrrolidin-2-one]	400 nM
O=C1CC(S)CN1Cc1ccc(CCc2ccccc2)cc1 (stereo not drawn) [Example 168, 4-Mercapto-1-(4-phenethylbenzyl)pyrrolidin-2-one]	70 nM
CC(=O)SC1CC(=O)N(CCc2ccc(Oc3ccccc3)cc2)C1 (stereo not drawn) [Example 169, S-[5-Oxo-1-(4-phenoxyphenethyl)-3-pyrrolidinyl]ethanethioate]	7000 nM
O=C1CC(S)CN1CCc1ccc(Oc2ccccc2)cc1 (stereo not drawn) [Example 170, 1-(4-Phenoxyphenethyl)-4-sulfanyl-2-pyrrolidinone]	500 nM
CC(=O)SC1CC(=O)N(Cc2ccc([S+]([O-])c3ccccc3)cc2)C1 (stereo not drawn) [Example 171, 4-Acetylthio-1-(4-phenylsulfinylbenzyl)pyrrolidin-2-one]	> 10000 nM
O=C1CC(S)CN1Cc1ccc([S+]([O-])c2ccccc2)cc1 (stereo not drawn) [Example 172, 4-Mercapto-1-(4-phenylsulfinylbenzyl)pyrrolidin-2-one]	> 10000 nM
CC(=O)SC1CC(=O)N(Cc2ccc(S(=O)(=O)c3ccccc3)cc2)C1 (stereo not drawn) [Example 173, 4-Acetylthio-1-(4-phenylsulfonylbenzyl)pyrrolidin-2-one]	> 10000 nM
O=C1CC(S)CN1Cc1ccc(S(=O)(=O)c2ccccc2)cc1 (stereo not drawn) [Example 174, 4-Mercapto-1-(4-phenylsulfonylbenzyl)pyrrolidin-2-one]	510 nM

Same assay, conditions: Table 11; 37° C., 2 hours

SMILES	IC50
CC(=O)SC1CC(=O)N(Cc2ccc(Oc3ccsc3)cc2)C1 (stereo not drawn) [Example 157, 4-Acetylthio-1-[4-(3′-thienyloxy)benzyl]pyrrolidin-2-one]	6 nM
O=C1CC(S)CN1Cc1ccc(Oc2ccsc2)cc1 (stereo not drawn) [Example 158, 4-Mercapto-1-[4-(3′-thienyloxy)benzyl]pyrrolidin-2-one]	4 nM
